The source of these data is PubChem BioAssay AID2384 (Southern Research Specialized Biocontainment Screening …, 2010).

A word on the IC50: it is the point on the concentration scale where inhibition reaches its midpoint.

Structures are written as SMILES.

For this experiment, the system named is S. typhi GFP reporter counter-screen, fluorescence, 4 h. Put plainly: inhibitors in S. typhi counter-screen strain, dose response, counter-screen for PhoP regulon inhibitor project, fluorescence, 4 h (AID 2384). In general terms: The purpose of a counterscreen is to sort out artefacts and off-target activity.

Take `Cc1cc(C)n(/N=C/c2cc(Cl)cc(Cl)c2O)c(=O)c1`: the 50% inhibitory concentration (IC50) was 101 µM.

`Cc1ccc(-c2c[n+](CC(=O)Nc3nc(-c4ccccc4)cs3)c3n2CCC3)cc1`: the 50% inhibitory concentration (IC50) was 21.2 µM.

With `C#CCOCCOCCOCCNc1nc(N2CCN(C(=O)CCCCCCCCCCNC(=O)[C@H](CO)n3cc(CCCCCN)nn3)CC2)nc(N2CCN(C(=O)CCCCCCCCCCNC(=O)[C@H](CCCN=C(N)N)n3cc(C[C@@H](C)CC)nn3)CC2)n1`, the half-inhibitory concentration (IC50) is 19.5 µM.

For the compound `OC(CNCCc1ccc(C(F)(F)F)cc1)COC(c1ccccc1)c1ccccc1` (centres undefined), the IC50 is 29.6 µM.

As to `COc1ccc(CNCCC(c2ccccc2)c2ccc3c(c2)OCO3)cc1` (centres undefined), the IC50 was 73.4 µM.

Turning to `COc1ccc(/C=N/Nc2cc(C)nc3ccccc23)cc1`, the IC50 is 29.2 µM.

Turning to `NC1=NC[C@H](Cc2ccc(O)cc2)N1CCC12CC3CC(CC(C3)C1)C2`, the half-maximal inhibitory concentration (IC50) is 37.7 µM.

As for `CN(C)CCN(C(=O)C1=COCCO1)c1nc2ccc(Cl)cc2s1`, the IC50 is 49.5 µM.

Turning to `O=C1C=CC(=O)N1CCCCCCN1C(=O)C=CC1=O`, the IC50 was 79.8 µM.

Turning to `C#CCOCCOCCOCCNc1nc(N2CCN(C(=O)[C@H]([C@@H](C)CC)n3cc([C@@H](N)Cc4ccc(O)cc4)nn3)CC2)nc(N2CCN(C(=O)[C@H](Cc3cc4ccccc4[nH]3)n3cc([C@@H](N)CC(C)C)nn3)CC2)n1`, the half-inhibitory concentration (IC50) is 27.2 µM.

Take `Cc1cc(N/N=C/c2ccc(O)cc2)c2cccc(C)c2n1`: the concentration for half-maximal inhibition (IC50) is 47.5 µM.

As for `CN(C)CC/C=C1\c2ccccc2Sc2cc(F)c(Cl)cc21`, the concentration for half-maximal inhibition (IC50) was 34.8 µM.

Take `Clc1ccc(OCCCN2CCCC2)cc1Cl`: the IC50 was 28.3 µM.

`Fc1ccc(Nc2c3c(nc4ccccc24)CCC3)cc1`: the half-inhibitory concentration (IC50) is 47 µM.

Take `CC(/C=N/Nc1nc2ccccc2[nH]1)=C\c1ccccc1`: the IC50 was 77.8 µM.

With `Cc1ccccc1C(=O)N/N=C/c1ccc([N+](=O)[O-])s1`, the half-maximal inhibitory concentration (IC50) is 75.3 µM.

`C#CCOCCOCCOCCNc1nc(N2CCN(C(=O)[C@H](Cc3cc4ccccc4[nH]3)n3cc([C@@H](N)C(C)CC)nn3)CC2)nc(N2CCN(C(=O)[C@H](Cc3cc4ccccc4[nH]3)n3cc([C@@H](N)Cc4ccc(O)cc4)nn3)CC2)n1` (some centres undefined): the IC50 was 18.5 µM.

`C#CCOCCOCCOCCNc1nc(N2CCN(C(=O)CCCCCCCCCCNC(=O)[C@H](CCCCN)n3cc(C)nn3)CC2)nc(N2CCN(C(=O)CCCCCCCCCCNC(=O)[C@H](CO)n3cc(CCCSC)nn3)CC2)n1`: the concentration for half-maximal inhibition (IC50) was 130 µM.

In the case of `CCCCCCCCCCC[N+](C)(C)CC/C=C1/c2ccccc2Sc2ccc(Cl)cc21`, the concentration for half-maximal inhibition (IC50) was 53.6 µM.

Regarding `C/C(O)=C\c1nc2ccccc2oc1=O`, the half-inhibitory concentration (IC50) is 41.6 µM.

Turning to `Fc1ccc(CCNCc2ccc(Cl)c(Cl)c2)cc1`, the IC50 is 36.6 µM.

`COc1ccc(CCN2CCC(Nc3nc4ccccc4n3Cc3ccc(F)cc3)CC2)cc1`: the IC50 was 29.4 µM.

For `Clc1ccc(Nc2ccc(NCc3ccccc3)nn2)cc1`, the concentration for half-maximal inhibition (IC50) is 90.7 µM.

With `CC1CCC(C(C)C)C(OC(=O)C[n+]2cc(-c3ccc(Cl)cc3)n3c2CCC3)C1` (centres undefined), the IC50 is 40.3 µM.

As for `C#CCOCCOCCOCCNc1nc(N2CCN(C(=O)[C@H](CCCCN)n3cc([C@@H](N)CC(C)C)nn3)CC2)nc(N2CCN(C(=O)[C@H](Cc3cc4ccccc4[nH]3)n3cc([C@@H](N)Cc4ccc(O)cc4)nn3)CC2)n1`, the 50% inhibitory concentration (IC50) was 26.9 µM.

With `CC(Oc1ccc(Br)cc1)c1nc2c3ccccc3nc(=S)n2[nH]1` (centres undefined), the IC50 was 139 µM.

For `N/C(=N\N=C/c1ccc(F)cc1)N/N=C\c1ccc(F)cc1`, the IC50 is 38.6 µM.

Regarding `CCCCCCCCCCOC(=O)Cn1c(COc2ccccc2OC)[n+](C)c2ccccc21`, the half-maximal inhibitory concentration (IC50) was 20 µM.

Turning to `Oc1ccc(/C=N/N=C(c2ccccc2)c2ccccc2)c(O)c1O`, the half-maximal inhibitory concentration (IC50) is 33.6 µM.

On to `CO[C@H]1/C=C/O[C@@]2(C)Oc3c(C)c(O)c4c(O)c(c(C=NN5CCN(C)CC5)c(O)c4c3C2=O)NC(=O)/C(C)=C\C=C\[C@H](C)[C@H](O)[C@@H](C)[C@@H](O)[C@@H](C)[C@H](OC(C)=O)[C@@H]1C`, for which the 50% inhibitory concentration (IC50) is 8.94 µM.

With `Cc1oc2c(O)c(O)ccc2c(=O)c1-c1ccccc1`, the half-inhibitory concentration (IC50) is 100 µM.

For `CCCCCCCCCCCCCCCC[n+]1cccc(C(=O)N(CC)CC)c1`, the IC50 was 18.3 µM.

As to `CCc1cccc2c(C(=O)COC(=O)c3ccc([N+](=O)[O-])s3)c[nH]c12`, the half-inhibitory concentration (IC50) is 18.7 µM.

As to `O=C(N/N=C/c1ccccc1O)C1SCCCS1`, the half-maximal inhibitory concentration (IC50) was 72.9 µM.

In the case of `CC(C)C1N=C(c2ccc3c(c2)OCO3)CC(c2ccccc2O)N1` (centres undefined), the IC50 was 117 µM.

As to `C#CCOCCOCCOCCNc1nc(N2CCN(C(=O)[C@H](Cc3ccc(O)cc3)n3cc([C@@H](N)CC(C)C)nn3)CC2)nc(N2CCN(C(=O)[C@H](Cc3cc4ccccc4[nH]3)n3cc([C@@H](N)CC(C)C)nn3)CC2)n1`, the IC50 was 41.8 µM.

As to `CN1CCCN(C(c2ccccc2)c2ccc(Cl)cc2)CC1` (centres undefined), the IC50 is 37.7 µM.

Regarding `O=C(CCN1CCN(C(=O)c2ccccc2)CC1)c1ccc(Br)cc1`, the concentration for half-maximal inhibition (IC50) was 81.6 µM.

In the case of `Cc1ccc(C(=O)N/C(=C\c2ccc(-c3ccc(Br)cc3)o2)C(=O)NCCCN(C)C)cc1`, the IC50 was 37.4 µM.

Consider `CN1CCN(c2c(F)cc3c(=O)c(C(=O)O)cn4c3c2OCN4C)CC1`, for which the half-inhibitory concentration (IC50) is less than 0.55 µM.

For `COc1cccc(CNCCc2c[nH]c3ccccc23)c1OCc1ccccc1`, the half-inhibitory concentration (IC50) was 89.1 µM.

Regarding `CCN1CCCC1CNC(=O)C1CCN(Cc2nc(-c3cccc(Br)c3)oc2C)CC1` (centres undefined), the half-inhibitory concentration (IC50) is 33.3 µM.

On to `C=CCNc1ncnc2c1[nH]c1ccc(Cl)cc12`, for which the IC50 was 37.2 µM.

Regarding `Cc1cccc2c1Sc1ccc(Cl)cc1CC2N1CCNCC1` (centres undefined), the IC50 was 71.8 µM.

Regarding `CCn1cc(C(=O)NCCO)c(=O)c2cc(F)c(N3CCN(C)CC3)cc21`, the IC50 is 27.7 µM.

Take `Cc1cc(N2CCC(C)CC2)nc(NCc2ccccc2)n1`: the concentration for half-maximal inhibition (IC50) was 51.8 µM.

For the compound `CCN(CC)c1ccc(CNc2nc3ccccc3n2C)cc1`, the IC50 is 81.6 µM.

Turning to `Oc1c(Br)cc(Br)cc1C=Nc1ccc2[nH]ncc2c1`, the IC50 is 21.8 µM.

On to `CCn1cc(C(=O)O)c(=O)c2cc(F)c(N3CCN(C(=O)Nc4ccccc4)CC3)cc21`, for which the concentration for half-maximal inhibition (IC50) is 50.8 µM.

Regarding `O=C(CC(=O)c1cc(Cl)ccc1O)c1ccccc1`, the half-maximal inhibitory concentration (IC50) was 26.8 µM.

With `CC1CCc2c(N3CCC(O)CC3)c(F)cc3c(=O)c(C(=O)O)cn1c23` (centres undefined), the IC50 was 18.9 µM.

`CCC[C@H](CN[C@@H](CNC)[C@H](C)CC)NCCc1cc(C(F)(F)F)cc(C(F)(F)F)c1`: the half-inhibitory concentration (IC50) was 25.1 µM.

As for `Cc1ccc(C(c2cc(Cl)c3cccnc3c2O)N2CCN(C)CC2)cc1` (centres undefined), the concentration for half-maximal inhibition (IC50) was 30.4 µM.

As for `CC1(C)CC(N2CCN(C(c3ccccc3)c3ccccc3)CC2)=CC(=[N+]2CCCCC2)C1`, the half-inhibitory concentration (IC50) was 63.2 µM.

Take `CN(C)CCCN(C(=O)CCc1ccccc1)c1nc2ccc(Br)cc2s1`: the concentration for half-maximal inhibition (IC50) was 32.8 µM.

With `O=C(Nc1ccncc1)Nc1ccc(Cl)cc1`, the concentration for half-maximal inhibition (IC50) is 85.2 µM.

Consider `N/C(=N\OS(=O)(=O)c1ccc(Cl)cc1)c1cccnc1`, for which the 50% inhibitory concentration (IC50) was 12.4 µM.

Consider `Clc1ccc(OCCCNCc2ccccc2)c(Br)c1`, for which the half-maximal inhibitory concentration (IC50) was 28.4 µM.

As to `CSc1ccccc1NC(=O)CN1CCCCC1C` (centres undefined), the IC50 was 131 µM.

For the compound `C[C@H]1c2cccc(O)c2C(O)=C2C(=O)[C@]3(O)C(O)=C(C(N)=O)C(=O)[C@@H](N(C)C)C3[C@@H](O)C21` (some centres undefined), the IC50 was 0.68 µM.

`CN1CCc2nc(SCC(=O)Nc3ccc(Cl)cc3)c(C#N)cc2C1`: the IC50 was 93.5 µM.

Turning to `O=C(CCC(=O)Nc1ccc(Cl)cc1Cl)N/N=C/c1ccc([N+](=O)[O-])o1`, the IC50 was 29 µM.

As to `O=C(CNC(=O)c1ccccc1)N/N=C/c1ccc([N+](=O)[O-])s1`, the IC50 is 28.7 µM.

With `Cc1nc2ccccc2c(N)c1C(=O)/C=C/c1ccccc1`, the IC50 is 101 µM.

Take `O=C(C[n+]1ccccc1)c1ccc(-c2ccccc2)cc1`: the half-maximal inhibitory concentration (IC50) was 123 µM.

For `NC(N)=Nc1nc(-c2ccccc2)c2cc(Cl)ccc2n1`, the half-inhibitory concentration (IC50) was 90.2 µM.

As for `NS(=O)(=O)c1ccc(CNc2ccc3ccccc3n2)cc1`, the IC50 is 145 µM.

Regarding `O=S1(=O)CC=C(CSC(=S)NC2CCS(=O)(=O)C2)C1` (centres undefined), the IC50 is 39.1 µM.

Turning to `CCCCCCCNC(=O)C1(CC2CC(c3ccc(Cl)cc3)=NO2)CCNCC1` (centres undefined), the IC50 was 23.8 µM.

For `Oc1ccc(Cl)cc1Cc1cc(Cl)ccc1O`, the IC50 was 27.7 µM.

As to `CC(=O)Nc1cccc(NC(=O)Nc2ccc(F)cc2F)c1`, the IC50 is 142 µM.

`CC1CCC(C(C)C)C(OC(=O)Cn2c(COc3ccccc3)[n+](C)c3ccccc32)C1` (centres undefined): the half-maximal inhibitory concentration (IC50) is 25.6 µM.

Consider `[O-][n+]1cccc2c(Br)cc(Br)c(O)c21`, for which the half-maximal inhibitory concentration (IC50) is 36.6 µM.

With `O=[N+]([O-])c1cc(Cl)cc(/C=N/NC(=S)Nc2ccc(S(=O)(=O)N3CCOCC3)cc2)c1O`, the IC50 was 51 µM.

With `N=c1n(CCN2CCCCC2)c2ccccc2n1CC(=O)c1ccc(Cl)c(Cl)c1`, the IC50 was 16.4 µM.

Turning to `Cc1ccc(O)c(Nc2c3ccccc3nc3ccccc23)c1`, the concentration for half-maximal inhibition (IC50) is 50.2 µM.

`O=C(CSc1nnc(-c2ccccc2)n1-c1ccc(Cl)cc1)NC1CCS(=O)(=O)C1` (centres undefined): the IC50 was 44.3 µM.

For the compound `CCn1nnc(NC(=O)c2ccc([N+](=O)[O-])o2)n1`, the IC50 was 80 µM.

For the compound `CCOC(=O)N/N=C\c1ccc([N+](=O)[O-])o1`, the concentration for half-maximal inhibition (IC50) is 31 µM.

Turning to `CCCCn1c(NS(=O)(=O)c2ccc(C)cc2)c(S(=O)(=O)c2ccccc2)c2nc3ccccc3nc21`, the 50% inhibitory concentration (IC50) is 9.71 µM.

Regarding `Oc1[nH]c2ccc(Br)cc2c1N=NC(=S)N1CCOCC1`, the half-inhibitory concentration (IC50) is 33.1 µM.

Turning to `CCOc1cc(Br)cc(/C=N/NC(=O)c2cccnc2)c1O`, the half-inhibitory concentration (IC50) is 126 µM.

For `COc1cc2c(cc1O)[C@H](Cc1ccc(Oc3cc(C[C@@H]4NCCc5cc(OC)c(O)cc54)ccc3O)cc1)NCC2`, the IC50 was 64 µM.

Consider `CCCCNCCCOc1cccc(Cl)c1Cl`, for which the IC50 was 58.5 µM.

Regarding `CC(c1cccnc1)N(CCN(C)C)C(=O)Nc1ccc(Cl)c(Cl)c1` (centres undefined), the half-maximal inhibitory concentration (IC50) was 98.4 µM.

As for `N=c1c2c(n(Cc3ccc(Cl)cc3Cl)c3c1CCC3)CCCC2`, the 50% inhibitory concentration (IC50) is 37.5 µM.

Take `CCn1cc(C(=O)O)c(=O)c2cc(F)c(N3CCNCC3)cc21`: the half-maximal inhibitory concentration (IC50) is 0.49 µM.

As to `CCC(/C=C1\Sc2ccc(OC)cc2N1CCO)=C\c1sc2ccc(OC)cc2[n+]1CCO`, the concentration for half-maximal inhibition (IC50) is 32 µM.

As to `Cc1cc(O)c2c(c1)C(=O)C13C(=C2O)C(=O)[C@H]2[C@@H](O)[C@@H]1[C@H]1[C@H](O)[C@@H]3C(=O)C3=C(O)c4c(O)cc(C)cc4C(=O)C312` (some centres undefined), the IC50 was 7.46 µM.
